According to patent US10611757B2, “Crystalline form of chemical compound, and preparation method, composition, and application thereof” (WUHAN LL SCIENCE AND TECHNOLOGY DEVELOPMENT CO., LTD., priority 2016, dated 2020):
Entries after “also recorded” stand apart in the source; their conditions may differ.

Tests used:
[1] = system: spontaneously hypertensive rats; test: Antihypertensive efficacy test in spontaneously hypertensive rats (systolic blood pressure and heart rate by implanted sensor); type: in vivo, rat; conditions: SHR, 1 mg/kg; for Systolic blood pressure change / Heart rate change: average ± standard error; for Heart rate change: oral
Description: 12-week-old spontaneously hypertensive rats (hereinafter referred to as SHR, purchased from Beijing Weitong Lihua Experimental Animal Technology Co., Ltd.) were anesthetized with 2.5% sodium pentobarbital for intraperitoneal injection. After that, the blood pressure sensing catheter of hypertension implant was inserted into their abdominal aorta, while the implant was fixed to the abdominal wall, and then postoperative daily care was performed after suturing.
Rats with systolic blood pressure exceeding 160 mm Hg were divided into 3 groups (control group, compound (A) group and compound (B) group), wherein each group has 8 rats. The control group was administrated 0.5% sodium carboxymethyl cellulose (hereinafter referred to as CMC-Na); the compound (B) group and the compound (A) group were respectively administered the compound (B) and the compound (A), both of which were dissolved by 0.5% CMC-Na, by intragastric administration, at a dose of 1 mg/kg (calculated by the effective dose of valsartan) and a volume calculated by 4 mL/kg.
The systolic blood pressure and heart rate of SHR were compared before and after administration (the systolic blood pressure and heart rate of SHR before administration as reference value), which were detected three times at each time point with the average value recorded.

[2] = Comparative stability test (total impurity content, 25° C., 60% relative humidity); type: physicochemical; conditions: for total impurity content: packed; for chemical stability relative to the amorphous form: total impurity content
Description: The stability of an amorphous form, the crystalline form I, a mixture of the crystalline form I and the crystal II, the crystal II, and the crystalline form III of the compound (A) was investigated. Specifically, the amorphous form, the crystalline form I, the mixture of the crystalline form I and the crystalline form II (weight ratio 1:2), the crystalline form II and the crystalline form III were taken 200 mg respectively to be investigated as follows:
Packing: Polyvinyl chloride (PVC) ziplock bag (the inner layer) was vacuumized, aluminum foil (the middle layer) was vacuumized, and aluminum foil desiccant (the outer layer) was vacuum and filled in with nitrogen;
Inspection conditions: 25° C., 60% relative humidity. The indicator was the total impurity content, which is determined by detection of samples three times at each time point with the average value recorded. The time points for sampling include 0, 1, 2, 3 and 6 months after packing.

[3] = Competition test between crystalline forms at room temperature (ethyl acetate suspension, XRD); type: physicochemical; conditions: for stability under room temperature relative to the competing form: competition in ethyl acetate suspension
Description: Equivalent amounts of crystalline form I and crystalline form II samples were mixed well, added with 0.8 ml ethyl acetate to form a suspension, stirred overnight and detected by XRD.
Equivalent amounts of crystalline form II and form III samples were mixed well, added with 0.2 ml ethyl acetate to form a suspension, which was stirred overnight to obtain a crystalline form II determined by XRD detection.
Equivalent amounts of crystalline form I and form III samples were mixed uniformly, added with 0.2 ml ethyl acetate to form a suspension, which was stirred overnight, to obtain a crystalline form I determined by XRD detection.

[4] = Comparative stability of crystalline form III and IV on drying overnight at room temperature (XRD); type: physicochemical
Description: The crystalline form III and the crystalline form IV samples were respectively dried overnight at room temperature.

[5] = Influences of high temperature and high humidity on the crystalline form II (XRD); type: physicochemical; conditions: 10 days
Description: Two samples of 20 mg the crystalline form II were respectively placed at 60° C. (sealed and shielded from light) and 85% relative humidity (exposed in the air at room temperature and shielded from light), detected by XRD after 10 days and compared with XRD of the crude sample.

[6] = Effects of tabletting processes on the crystalline form II (XRD); type: physicochemical; conditions: tableted under 20 kg and 25 kg pressure
Description: Tabletting method: 50 mg of the crystalline form II was tableted under 20 kg and 25 kg pressure by a single punching machine.
The XRD of the obtained sample powder was compared with the XRD of the crude sample, the results are shown in FIG. 8 (from top to bottom: the crude sample, the sample after 25 kg pressure tabletting and the sample after 20 kg pressure tabletting).

[7] = intragastric, 1 hour after administration
[8] = intragastric, 3 hours after administration
[9] = intragastric, 5 hours after administration
[10] = intragastric, 7 hours after administration
[11] = intragastric, 10 hours after administration
[12] = intragastric, 24 hours after administration
[13] = intragastric, before administration (reference value)
[14] = before administration (reference value)

Structure (SMILES): CCOc1nc2cccc(C(=O)OC(C)OC(=O)OCc3nc(C)c(C)nc3C)c2n1Cc1ccc(-c2ccccc2-c2noc(=O)[n-]2)cc1.[K+] (stereo not shown) [Compound (A)]
- effect of lowering heart rate compared with the compound (B) group [1]: more potent with longer-lasting effect of lowering heart rate
- antihypertensive effect compared with the compound (B) group ([1]; intragastric): more potent with longer-lasting antihypertensive effect
- Systolic blood pressure change [1, 7]: −7.0 ± 3.4 mmHg
- Systolic blood pressure change [1, 8]: −34.3 ± 1.9 mmHg
- Systolic blood pressure change [1, 9]: −46.5 ± 2.5 mmHg
- Systolic blood pressure change [1, 10]: −49.4 ± 4.1 mmHg
- Systolic blood pressure change [1, 11]: −45.3 ± 3.3 mmHg
- Systolic blood pressure change [1, 12]: −25.9 ± 3.4 mmHg
- Systolic blood pressure change [1, 13]: 0.0 ± 0.0 mmHg
- Heart rate change ([1]; 1 hour after administration): −3.6 ± 2.4 times/minute
- Heart rate change ([1]; 3 hours after administration): −5.0 ± 2.5 times/minute
- Heart rate change ([1]; 5 hours after administration): −10.1 ± 3.0 times/minute
- Heart rate change ([1]; 7 hours after administration): −17.5 ± 3.0 times/minute
- Heart rate change ([1]; 10 hours after administration): −25.4 ± 2.4 times/minute
- Heart rate change ([1]; 24 hours after administration): −28.6 ± 8 times/minute
- Heart rate change [1, 14]: 0.0 ± 0.0 times/minute

Structure (SMILES): CCOc1nc2cccc(C(=O)OC(C)OC(=O)OCc3nc(C)c(C)nc3C)c2n1Cc1ccc(-c2ccccc2-c2noc(=O)[nH]2)cc1 (stereo not shown) [Compound (B), reference compound]
- Systolic blood pressure change [1, 7]: −4.9 ± 4.8 mmHg
- Systolic blood pressure change [1, 8]: −22.0 ± 3.6 mmHg
- Systolic blood pressure change [1, 9]: −30.5 ± 3.5 mmHg
- Systolic blood pressure change [1, 10]: −38.8 ± 2.3 mmHg
- Systolic blood pressure change [1, 11]: −33.0 ± 1.7 mmHg
- Systolic blood pressure change [1, 12]: −10.2 ± 2.1 mmHg
- Systolic blood pressure change [1, 13]: 0.0 ± 0.0 mmHg
- Heart rate change ([1]; 1 hour after administration): −3.4 ± 2.6 times/minute
- Heart rate change ([1]; 3 hours after administration): −2.33 ± 2.6 times/minute
- Heart rate change ([1]; 5 hours after administration): −6.5 ± 2.8 times/minute
- Heart rate change ([1]; 7 hours after administration): −6.2 ± 3.0 times/minute
- Heart rate change ([1]; 10 hours after administration): −12.3 ± 2.8 times/minute
- Heart rate change ([1]; 24 hours after administration): −6.7 ± 2.6 times/minute
- Heart rate change [1, 14]: 0.0 ± 0.0 times/minute

Structure (SMILES): CCOc1nc2cccc(C(=O)OC(C)OC(=O)OCc3nc(C)c(C)nc3C)c2n1Cc1ccc(-c2ccccc2-c2noc(=O)[n-]2)cc1.[K+] (stereo not shown) [crystalline form III]
- total impurity content ([2]; 0 months): 1.56%
- total impurity content ([2]; 1 month): 2.55%
- total impurity content ([2]; 2 months): 2.98%
- total impurity content ([2]; 3 months): 3.34%
- total impurity content ([2]; 6 months): 3.76%
- chemical stability relative to the amorphous form [2]: better than the amorphous form
- transformation of crystalline form in competition with form I ([3]; equivalent amounts of form I and form III, ethyl acetate suspension, stirred overnight, XRD): completely transformed into the crystalline form I
- transformation of crystalline form in competition with form II ([3]; equivalent amounts of form II and form III, ethyl acetate suspension, stirred overnight, XRD): completely transformed into the crystalline form II
- share converted to the crystalline form I ([4]; dried overnight at room temperature, XRD): no more than 30%
- stability at room temperature relative to crystalline form IV [4]: superior to that of the crystalline form IV

Structure (SMILES): CCOc1nc2cccc(C(=O)OC(C)OC(=O)OCc3nc(C)c(C)nc3C)c2n1Cc1ccc(-c2ccccc2-c2noc(=O)[n-]2)cc1.[K+] (stereo not shown) [crystalline form II]
- crystalline form after high temperature ([5]; 60° C., sealed and shielded from light): remains unchanged
- crystalline form after high humidity ([5]; 85% relative humidity, room temperature, shielded from light): remains unchanged
- total impurity content ([2]; 0 months): 1.29%
- total impurity content ([2]; 1 month): 1.43%
- total impurity content ([2]; 2 months): 1.59%
- total impurity content ([2]; 3 months): 1.82%
- total impurity content ([2]; 6 months): 1.87%
- chemical stability relative to the amorphous form [2]: better than the amorphous form
- stability under room temperature relative to the competing form [3]: better than that of form I; also recorded: better than that of form III
- crystalline form after tabletting [6]: remains unchanged
- stability at room temperature relative to crystalline form IV [4]: superior to that of the crystalline form IV

Structure (SMILES): CCOc1nc2cccc(C(=O)OC(C)OC(=O)OCc3nc(C)c(C)nc3C)c2n1Cc1ccc(-c2ccccc2-c2noc(=O)[n-]2)cc1.[K+] (stereo not shown) [crystalline form IV]
- transformation of crystalline form on drying ([4]; dried at room temperature, XRD): converted to crystalline form I; also recorded: completely transformed into the crystalline form I

Structure (SMILES): CCOc1nc2cccc(C(=O)OC(C)OC(=O)OCc3nc(C)c(C)nc3C)c2n1Cc1ccc(-c2ccccc2-c2noc(=O)[n-]2)cc1.[K+] (stereo not shown) [crystalline form I]
- total impurity content ([2]; 0 months): 1.11%
- total impurity content ([2]; 1 month): 1.62%
- total impurity content ([2]; 2 months): 2.34%
- total impurity content ([2]; 3 months): 2.49%
- total impurity content ([2]; 6 months): 3.10%
- chemical stability relative to the amorphous form [2]: better than the amorphous form
- stability under room temperature relative to the competing form [3]: better than that of the crystalline form III
- content of crystalline form I in the obtained product ([3]; equivalent amounts of form I and form II, ethyl acetate suspension, stirred overnight, XRD): about 5%
- stability at room temperature relative to crystalline form IV [4]: superior to that of the crystalline form IV

Structure (SMILES): CCOc1nc2cccc(C(=O)OC(C)OC(=O)OCc3nc(C)c(C)nc3C)c2n1Cc1ccc(-c2ccccc2-c2noc(=O)[n-]2)cc1.[K+] (stereo not shown) [mixture of crystalline form I and II]
- total impurity content ([2]; 0 months): 0.90%
- total impurity content ([2]; 1 month): 1.58%
- total impurity content ([2]; 2 months): 2.20%
- total impurity content ([2]; 3 months): 2.40%
- total impurity content ([2]; 6 months): 3.29%
- chemical stability relative to the amorphous form [2]: better than the amorphous form
